For assay [1], the system named is ERK phosphorylation in KYSE-520 cells. Kind of assay: Phospho-ERK cellular assay. It counts as cell-based. As to conditions: KYSE-520 cells, 2 h at 37° C., phospho-ERK1/2 (Thr202/Tyr204) TR-FRET, read-out: PERK IC50. The method in brief:
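TR-FRET read-out of ERK1/2 Thr202/Tyr204 phosphorylation was taken after overnight antibody incubation at room temperature. Before that, KYSE-520 cells were treated 2 h at 37 °C with compound dilutions and lysed 30 min. Percent inhibition relative to vehicle and cell-free wells was fitted four-parametrically to give IC50.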
(In general: In TR-FRET formats the signal depends on donor and acceptor labels being close together.)

Assay [2] concerns the target SHP-2 enzyme (Met1-Leu525) (Homo sapiens (Human), UniProt Q06124). Kind of assay: SHP2 inhibition enzymatic assay. As to conditions: 0.5 nM SHP-2 activated by 500 nM IRS1 peptide, 75 μM DiFMUP substrate; read-out: SHP2wt-IC50. The class given is biochemical. In short, it runs like this:
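Compounds were preincubated 30 min with 0.5 nM SHP-2 (Met1-Leu525) plus 500 nM IRS1 activating peptide (pH 7.2 HEPES, 5 mM DTT), then 75 μM DiFMUP substrate reacted 30 min at room temperature. After bpV quench, DiFMUP fluorescence gave % inhibition; four-parameter logistic fit yielded IC50.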

Each structure is given as a SMILES string. Read-outs that look alike come from different tables or passages of the source. Bounds are passed on as bounds.

Chain of SHP-2 enzyme (Met1-Leu525) (Q06124 1-525): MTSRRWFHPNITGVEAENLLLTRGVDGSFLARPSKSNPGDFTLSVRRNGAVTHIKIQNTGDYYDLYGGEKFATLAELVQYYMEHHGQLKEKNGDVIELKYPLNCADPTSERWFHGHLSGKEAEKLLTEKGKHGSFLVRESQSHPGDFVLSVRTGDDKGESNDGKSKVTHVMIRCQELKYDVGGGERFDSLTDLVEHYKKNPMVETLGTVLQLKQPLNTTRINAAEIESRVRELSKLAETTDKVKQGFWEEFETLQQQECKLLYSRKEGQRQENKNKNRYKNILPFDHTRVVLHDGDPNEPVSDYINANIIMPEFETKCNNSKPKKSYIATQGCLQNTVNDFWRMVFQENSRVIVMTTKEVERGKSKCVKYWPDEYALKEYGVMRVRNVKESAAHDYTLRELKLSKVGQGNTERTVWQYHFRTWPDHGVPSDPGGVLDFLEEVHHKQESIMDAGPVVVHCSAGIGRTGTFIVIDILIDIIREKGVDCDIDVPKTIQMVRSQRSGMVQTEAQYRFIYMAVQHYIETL

As usually defined, the IC50 is the midpoint of a concentration-inhibition curve. Turning to `Cc1nc(N2CCC3C(C2)C3(CN)c2ccsc2)c(CO)nc1-c1cccc(Cl)c1Cl` (stereo not drawn) [Example 1, [3-[7-(aminomethyl)-7-(thiophen-3-yl)-3-azabicyclo[4.1.0]heptan-3-yl]-6-(2,3-dichlorophenyl)-5-methylpyrazin-2-yl]methanol], the IC50 in assay [1] (Homo sapiens, KYSE-520, 2 h) was over 5000 nM; in assay [2], under 500 nM.

Consider `Cn1cc2c(Cl)c(-c3n[nH]c4nc(N5C[C@@H]6[C@H](C5)[C@@]6(CN)c5cnsn5)cnc34)ccc2n1` [Example 490, ((1R,5S,6r)-3-(3-(4-chloro-2-methyl-2H-indazol-5-yl)-1H-pyrazolo[3,4-b]pyrazin-6-yl)-6-(1,2,5-thiadiazol-3-yl)-3-azabicyclo[3.1.0]hexan-6-yl)methanamine], for which the IC50 in assay [1] (Homo sapiens, KYSE-520, 2 h) was under 1000 nM; in assay [2], under 500 nM.

In the case of `COc1ccc(-c2n[nH]c3nc(N4CC[C@@H]5[C@H](C4)[C@@]5(CN)c4ccccc4F)cnc23)cc1F` [Example 399], the IC50 was under 1000 nM in assay [1] and under 500 nM in assay [2].

Consider `NC[C@]1(c2ccccc2F)[C@@H]2CCN(c3cnc4c(-c5ccc6c(c5)CCN6)n[nH]c4n3)C[C@@H]21` [Example 312, ((1S,6R,7R)-7-(2-fluorophenyl)-3-(3-(indolin-5-yl)-1H-pyrazolo[3,4-b]pyrazin-6-yl)-3-azabicyclo[4.1.0]heptan-7-yl)methanamine], for which the IC50 was under 1000 nM in assay [1] (Homo sapiens, KYSE-520, 2 h) and under 500 nM in assay [2].

Regarding `NC[C@]1(c2ccccc2F)[C@@H]2CCN(c3cnc(Sc4ccc(C(N)=O)cc4Cl)cn3)C[C@@H]21` [Example 421, 4-((5-((1S,6R,7R)-7-(aminomethyl)-7-(2-fluorophenyl)-3-azabicyclo[4.1.0]heptan-3-yl)pyrazin-2-yl)thio)-3-chlorobenzamide], the IC50 is under 1000 nM in assay [1] (Homo sapiens, KYSE-520, 2 h) and under 500 nM in assay [2].

Consider `Cn1cnc2ccc(-c3ccc4nc(N5CC[C@@H]6[C@H](C5)[C@@]6(CN)c5cc(F)ccc5F)cnc4n3)cc21` [Example 527, ((1S,6R,7R)-7-(2,5-difluorophenyl)-3-(6-(1-methyl-1H-benzo[d]imidazol-6-yl)pyrido[2,3-b]pyrazin-2-yl)-3-azabicyclo[4.1.0]heptan-7-yl)methanamine], for which the IC50 in assay [1] (Homo sapiens, KYSE-520, 2 h) was 1000 to 5000 nM; in assay [2] it was under 500 nM.

Regarding `NC[C@]1(c2ccccc2F)[C@@H]2CCN(c3cnc4nc(Sc5ccncc5)ccc4n3)C[C@@H]21` [Example 407, ((1S,6R,7R)-7-(2-fluorophenyl)-3-(6-(pyridin-4-ylthio)pyrido[2,3-b]pyrazin-2-yl)-3-azabicyclo[4.1.0]heptan-7-yl)methanamine], the IC50 in assay [1] (Homo sapiens, KYSE-520, 2 h) was under 1000 nM; in assay [2] it was under 500 nM.

For `CCOc1ccc(-c2n[nH]c3nc(N4CC[C@@H]5[C@H](C4)[C@@]5(CN)c4ccccc4F)cnc23)c2cccnc12` [Example 164, ((1S,6R,7R)-3-(3-(8-ethoxyquinolin-5-yl)-1H-pyrazolo[3,4-b]pyrazin-6-yl)-7-(2-fluorophenyl)-3-azabicyclo[4.1.0]heptan-7-yl)methanamine], the IC50 was under 1000 nM in assay [1] (Homo sapiens, KYSE-520, 2 h) and under 500 nM in assay [2].

In the case of `NC[C@]1(c2ccccc2F)[C@@H]2CCN(c3cnc4c(-c5ccc6c(c5)C(=O)NCC6)n[nH]c4n3)C[C@@H]21` [Example 251, 7-(6-((1S,6R,7R)-7-(aminomethyl)-7-(2-fluorophenyl)-3-azabicyclo[4.1.0]heptan-3-yl)-1H-pyrazolo[3,4-b]pyrazin-3-yl)-3,4-dihydroisoquinolin-1(2H)-one], the concentration for half-maximal inhibition (IC50) in assay [1] (Homo sapiens, KYSE-520, 2 h) is under 1000 nM; in assay [2], under 500 nM.

As for `Cn1cc(-c2ccc(-c3n[nH]c4nc(N5CC[C@@H]6[C@H](C5)[C@@]6(CN)c5ccccc5F)cnc34)c(Cl)c2)cn1` [Example 297, ((1S,6R,7R)-3-(3-(2-chloro-4-(1-methyl-1H-pyrazol-4-yl)phenyl)-1H-pyrazolo[3,4-b]pyrazin-6-yl)-7-(2-fluorophenyl)-3-azabicyclo[4.1.0]heptan-7-yl)methanamine], the IC50 in assay [1] (Homo sapiens, KYSE-520, 2 h) is under 1000 nM; in assay [2] it was under 500 nM.

Take `NC[C@]1(c2ccccc2F)[C@@H]2CCN(c3cnc(Sc4ccnc(-n5cccn5)c4Cl)cn3)C[C@@H]21` [Example 388, ((1S,6R,7R)-3-(5-((3-chloro-2-(1H-pyrazol-1-yl)pyridin-4-yl)thio)pyrazin-2-yl)-7-(2-fluorophenyl)-3-azabicyclo[4.1.0]heptan-7-yl)methanamine]: the IC50 in assay [1] (Homo sapiens, KYSE-520, 2 h) was under 1000 nM; in assay [2], under 500 nM.

`CN1Cc2cc(-c3n[nH]c4nc(N5CC[C@@H]6[C@H](C5)[C@@]6(CN)c5ccccc5F)cnc34)ccc2C1=O` [Example 244, 5-(6-((1S,6R,7R)-7-(aminomethyl)-7-(2-fluorophenyl)-3-azabicyclo[4.1.0]heptan-3-yl)-1H-pyrazolo[3,4-b]pyrazin-3-yl)-2-methylisoindolin-1-one]: the IC50 in assay [1] (Homo sapiens, KYSE-520, 2 h) is under 1000 nM; in assay [2], under 500 nM.

For the compound `Cn1c(-c2n[nH]c3nc(N4CC[C@@H]5[C@H](C4)[C@@]5(CN)c4ccccc4F)cnc23)cccc1=O` [Example 198, 6-(6-((1S,6R,7R)-7-(aminomethyl)-7-(2-fluorophenyl)-3-azabicyclo[4.1.0]heptan-3-yl)-1H-pyrazolo[3,4-b]pyrazin-3-yl)-1-methylpyridin-2(1H)-one], the IC50 in assay [1] (Homo sapiens, KYSE-520, 2 h) is under 1000 nM; in assay [2] it was under 500 nM.

As to `COCCn1cc2c(Cl)c(-c3n[nH]c4nc(N5CC[C@@H]6[C@H](C5)[C@@]6(CN)c5ccccc5F)cnc34)ccc2n1` [Example 393, ((1S,6R,7R)-3-(3-(4-chloro-2-(2-methoxyethyl)-2H-indazol-5-yl)-1H-pyrazolo[3,4-b]pyrazin-6-yl)-7-(2-fluorophenyl)-3-azabicyclo[4.1.0]heptan-7-yl)methanamine], the IC50 in assay [1] (Homo sapiens, KYSE-520, 2 h) was under 1000 nM; in assay [2], under 500 nM.

As to `Cc1nccc(-c2n[nH]c3nc(N4CC[C@@H]5[C@H](C4)[C@@]5(CN)c4ccccc4F)cnc23)c1F` [Example 195, ((1S,6R,7R)-3-(3-(3-fluoro-2-methylpyridin-4-yl)-1H-pyrazolo[3,4-b]pyrazin-6-yl)-7-(2-fluorophenyl)-3-azabicyclo[4.1.0]heptan-7-yl)methanamine], the IC50 was under 1000 nM in assay [1] (Homo sapiens, KYSE-520, 2 h) and under 500 nM in assay [2].

Take `Cc1nccc(Sc2ccc3nc(N4CC[C@@H]5[C@H](C4)[C@@]5(CN)c4ccccc4F)cnc3n2)c1F` [Example 419, ((1S,6R,7R)-3-(6-((3-fluoro-2-methylpyridin-4-yl)thio)pyrido[2,3-b]pyrazin-2-yl)-7-(2-fluorophenyl)-3-azabicyclo[4.1.0]heptan-7-yl)methanamine]: the 50% inhibitory concentration (IC50) was under 1000 nM in assay [1] (Homo sapiens, KYSE-520, 2 h) and under 500 nM in assay [2].

`CC(=O)NC[C@]1(c2ccccc2F)[C@@H]2CCN(c3cnc4c(-c5ccc6nn(C)cc6c5)n[nH]c4n3)C[C@@H]21` [Example 383, N-(((1S,6R,7R)-7-(2-fluorophenyl)-3-(3-(2-methyl-2H-indazol-5-yl)-1H-pyrazolo[3,4-b]pyrazin-6-yl)-3-azabicyclo[4.1.0]heptan-7-yl)methyl)acetamide]: the half-maximal inhibitory concentration (IC50) in assay [1] (Homo sapiens, KYSE-520, 2 h) is under 1000 nM; in assay [2] it was over 3000 nM.

`Cc1csc(C2(CN)[C@@H]3CN(c4cnc5c(-c6ccc(C(N)=O)c7ncccc67)n[nH]c5n4)C[C@@H]32)n1` (stereo partly drawn) [Example 504]: the IC50 in assay [1] was under 1000 nM; in assay [2] it was under 500 nM.

For the origin of these results see patent US20240109900A1, “AZABICYCLIC SHP2 INHIBITORS” (IRBM S.P.A., priority 2021, published 2024).
